Source: patent EP1024807B1, “USE OF THE COMPOUND 2-METHOXYPHENYL-1-METHYL-5P-METHYLBENZOYL-PYRROL-2-ACETAMIDO ACETATE FOR THE PRODUCTION OF AN ANTI-INFLAMMATORY DRUG WITH PREVENTION OF GASTRIC HYPERSECRETION AND RENAL IMPAIRMENT” (MEDOSAN Ricerca S.r.l., priority 1997, dated 1999)

Experiments:
gastric PGE2 = assay: Effect on gastric PGE2 in the rat; assay type: in vivo
Source text: Moreover, as with all the NSAIDs currently aveilable, it inhibits gastric PGE2 in the rat, albeit to a lesser degree than ASA (Table 7).

Rats [1] = assay: Diuresis in normally hydrated rats; assay type: in vivo
Procedure: In the course of various studies conducted on animals to show the lack of renal impairment, a test was carried out to compare the diuresis in normally hydrated rats treated orally for 8 consecutive days with amtolmeting guacyl and diclofenac, which is also a NSAID. […] It is to be stressed that the behaviour of diclofenac is completely in line with the behaviour of a NSAID as known in the art, that is to say to markedly reduce the diuresis, while that of amtolmeting guacyl is completely unforeseeable.
Repeated doses (one per day) for 8 days increased diuresis in the treated rats by 35% (see fig. 13).

[2] = system: post-traumatic arthralgia; assay: Clinical comparison in post-traumatic arthralgia; assay type: in vivo, man
Source text: The same can be said in the treatment of post-traumatic arthralgia.

patients [3] = settings: 336 patients, Diclofenac 100mg, cited from earlier work; for Suspensions of treatment: number of patients, 180 days of treatment; for % of totale: suspensions of treatment, 180 days
Rats [4] = assay: Carrageenan pleurisy, exudate volume at 4 hours; assay type: in vivo
Procedure: Compounds were administered orally 1 hour prior to and 1 hour post pleurisy induction in a volume of 0.5 ml 1% gum tragacanth. Indomethacin was used at 3 mg/kg. MED 15 was used at 25, 50 and 100 mg/kg.
A 1% solution of carrageenan in sterile saline was prepared. The solution was placed in an incubator at 37°C for half an hour to allow complete hydration of the carrageenan. The solution was then mixed to homogeneity.
A 21Gx40mm syringe needle was reduced in length to 5mm and fitted to a 1ml syringe containing the irritant. Rats were lightly anaesthetised with halothane. Each animal was placed on its left side. The skin over the thorax was lifted with and a 1cm incision made through the skin with a pair of scissors. The wound was opened to expose the underlying muscle. Using a scalpel, a 2-3mm incision was made into the muscle of the 5th-6th intercostal space. A volume of 0.15ml of carrageenan solution was then injected into the pleural cavity. The wound was closed with a 11mm Michel clip and the animal allowed to recover from the anaesthetic. Groups of animals were killed 4 hours after pleurisy induction.
Lavage solution: One part of 3.15% trisodium citrate solution, mixed with nine parts of Hank's balanced salt solution.
Rats were killed by over exposure to carbon dioxide. For each rat the skin over the thorax was moistened with IMS alcohol. The skin over the sternum was then lifted and a 5cm cut made, to expose the musculature of the upper abdomen and thoracic cavity. The muscle overlying the xiphisternum was lifted with tissue forceps and a 1cm cut made through the muscle to reveal the cartilage. This was then lifted and the diaphragm perforated just beneath the cartilage. Two cuts were then made through the rib cage either side of the cartilage to form a flap which could be folded back to expose the thoracic cavity.
Using a syringe, 1ml of lavage fluid was introduced into the thoracic cavity. The fluid was aspirated 2-3 times with a 3ml pastette to wash the cavity, before being collected into separate 10ml conical-based plastic test-tubes. Any blood contaminated fluids were rejected.
The mass of each tube with fluid was determined. By subtracting the mass of an empty tube from these values, and assuming a density for the fluid of 1g/cm^3, the fluid volume was quantified.
Results were analysed by ANOVA followed by Bonferroni T-test. Values of p<0.05 were considered significant.
Dosing was one hour prior to and one hour post pleurisy induction and inflammation was assessed at 4 hours.

patients [5] = assay: Clinical trials: tolerability, adverse events and suspensions of treatment; assay type: in vivo, man; settings: 31 comparative and 6 non-comparative clinical trials, 1596 patients
Source text: Interest in the amtolmetin guacyl molecule arose following a thorough analysis of the results of 31 comparative and 6 non-comparative clinical trials involving 1596 patients. […] Turthermore the physician, being aware of administering an NSAID, was expecting adverse events and could not be expected to be an impartial observer. The few cases of gastro-intestinal phenomena reported with amtolmetin guacyl were transitory and in no event accompanied by the presence of occult blood in the stools. Moreover, even in the presence of a reported side-effect it was almost never necessary to suspend treatment (0.4% of suspensions).
Following are summarized the results obtained on a total of 1596 patients in 37 clinical trials.
Confirmation of the above described advantages is the very low incidence of treatment suspension for adverse events found in clinics (Table 17), which is not the case for most of NSAIDs known in the art (Table 18).

Rats [6] = assay: Adjuvant arthritis (joint diameter and patellar bone mass); assay type: in vivo; settings: for % Change: ([left-right]/right)X100
Procedure: The drugs were administered daily by oral gavage for 4 days (day 0-3); piroxicam and MED 15 were dissolved in 5% Gum arabic + 0.01% Tween 80, and administered in a volume of 0.5ml. Piroxicam was administered as 3mg/kg and MED 15 was administered as 25, 50 and 100mg/kg doses. Table 8 bis illustrating dosage regimes. L=left stifle joint, R=Right stifle joint.
Under halothane anaesthesia, rats received 200µg of heat-killed finely ground Mycobactyerium tubercolosis in 25µl (80mg/10ml sterile saline) injected intra-articulary into the left stifle joint. The contralateral joint received 25µl 0.9% sterile saline. Control animals received 25µl of 0.9% sterile saline in both knees. SGE 50µl microsyringes with a volume lock calibrated at 25µl were used with 30G stainless steel needles. Solutions were prepared sterile, and aseptic technique was used throughout, with sterilisation of syringes between groups.
The rats were killed by carbon dioxide suffocation. The body weight was noted and the skin overlying the stifle joints was divided and the joint diameters assessed in mm using Mitutoyo vernier callipers (530-312, 0.02mm).
The patellae were dissected, weighed (Sartorius, 0.01mg) and then immersed in 1ml digestion buffer (see below) to remove soft tissue.
Digestive buffer was prepared fresh to the following formula; disodium hydrogen orthophosphate 20mM, EDTA 1mM and diothiothreitol at 2mM. Papain (EC 3.4.22.2) was added at a concentration of 6U/ml. Each patella was digested in 1ml of digestive buffer at 56°C for 4 hours. The residual paterllar bones were dried (100°C 24 hours) and weighed (Sartorius 0.01mg).
Results are presented as follows: left and right parameter alone, the difference between arthritic and contralateral control joint (left-right); and % difference between arthritic and control joints ([left-right]/right]X100).
Calculations were carried out using the spreadsheet program Lotus 123. Statistical comparisons were made between the absolute differences using INSTAT Mann Whitney unpaired two-tailed statistical test.

With `CC(=O)Oc1ccccc1C(=O)O` [ASA, acetyl salicylic acid, reference compound] the “%inhibition” value (gastric PGE2; gastric PGE2 versus controls) was 86.7% and the “PGE2 (ngtg^Δ tissue)±S.E.” value (gastric PGE2; gastric tissue, rat, controls 108.7±23.9) was 14.4±4.5 nanograms for gram of tissue.
With `O=C(O)Cc1ccccc1Nc1c(Cl)cccc1Cl` [Diclofenac, reference compound] the decreased diuresis (Rats [1]; single dose, average) was 10%, the diuresis (Rats [1]; treated orally for 8 consecutive days, fig. 13) was “clear decrease” and the duration of effect [2] was 3 h. For the same molecule, the latency time [2] was 20 min, the “time to reach peak effect” value [2] was 1 h and the Suspensions of treatment (patients [3]) was 63. For the same molecule, the “% of totale” value (patients [3]) was 18,7%.
For `COc1ccc2c(c1)c(CC(=O)O)c(C)n2C(=O)c1ccc(Cl)cc1` [Indomethacin, reference compound], the “Exudate volume” value (Rats [4]; 3mg/kg orally 1 hour prior to and 1 hour post induction, 4 hour, control 0.94±0.04) was 0.47 ± 0.11 mL, the “reduction in exudate volume” value (Rats [4]; 3mg/kg, compared to gum tragacanth control) was 50% and the “incidence of adverse events involving the stomach” value (patients [5]) was ≥ 30%.
For `Cc1cnc(NC(=O)C2=C(O)c3ccccc3S(=O)(=O)N2C)s1` [Meloxicam], the Suspensions of treatment (patients [3]) is given as 42 and the “% of totale” value (patients [3]) is given as 12,4%.
In the case of `CN1C(C(=O)Nc2ccccn2)=C(O)c2ccccc2S1(=O)=O` [Piroxicam, reference compound], the “Swelling Diameter difference (L-R)” value (Rats [6]; 3mg/kg daily oral, day 0-3) is reported as 1.67 mm, the “Joint diameter (mm) Left” value (Rats [6]; 3mg/kg daily oral, day 0-3, left = arthritic joint) is reported as 10.41 mm and the “Joint diameter (mm) Right” value (Rats [6]; 3mg/kg daily oral, day 0-3, right = saline control joint) is reported as 8.74 mm. For the same molecule, the “% Change” value (Rats [6]; joint diameter, 3mg/kg daily oral) was 19.15%, the “% Change” value (Rats [6]; patellar bone mass, 3mg/kg daily oral) was -27.74% and the “protection against bone loss” value (Rats [6]; patellar bone mass, arthritic groups) was “greatest protection against bone loss”. The “Bone loss Left-Right” value (Rats [6]; patellar bone, 3mg/kg daily oral) was -1.31 mg, the “Bone mass (mg) Left” value (Rats [6]; patellar bone, 3mg/kg daily oral, left = arthritic joint) was 3.07 mg and the “Bone mass (mg) Right” value (Rats [6]; patellar bone, 3mg/kg daily oral, right = saline control joint) was 4.21 mg.
